Test results published in US5593970A, “Heterocyclic anthracycline analogs” (priority 1994, dated 1997).

Tests used:
Assay in all cases: Microculture tetrazolium assay
Assay type in all cases: cell-based
[1] = test system: LOX; details: read-out: IC50
[2] = test system: SKVLB; details: for VLB/OV3: IC50 ratio SKVLB/SKOV3; for IC50: SKVLB, read-out: IC50
[3] = test system: T47D; details: Homo sapiens, read-out: IC50
[4] = test system: HT29; details: Homo sapiens, HT-29, HT29; read-out: IC50
[5] = test system: SKOV3; details: Homo sapiens, SK-OV-3, SKOV3; read-out: IC50

IC50 [1] | IC50 [2] | IC50 [3] | IC50 [4] | IC50 [5] | SMILES | VLB/OV3 [2]
44.2 µM | 90.2 µM | 42.8 µM | 32.1 µM | 49.5 µM | CC(=O)Nc1nc([C@@H]2CC3=C(C(=O)c4cc5ccccc5c(O)c4C3=O)[C@@H](O[C@H]3C[C@H](NC(=O)C(F)(F)F)[C@H](O)[C@H](C)O3)O2)cs1 [BCH-1623, (1'S,1R,3S)-6-hydroxy-1-(2',3',6'-trideoxy-3'-trifluoroacetamido-L-lyxohexopyranose)-3-(2-aza-3-acetamido-thienyl)-5,12-dioxo-3,4,5,12-tetrahydro-anthraceno-[2,3-c]-pyran] | 1.82
7.02 µM | 11.5 µM | 12.6 µM | 6.25 µM | 9.28 µM | CC1(C2Cc3c(O)c4c(c(O)c3CO2)C(=O)c2ccccc2C4=O)OCCCO1 (centres unmarked) [BCH-1115] | 1.24
1 µM | 3.18 µM | 3.11 µM | 0.876 µM | 1.99 µM | CC(=O)C1CC2=C(C(=O)c3cc4ccccc4c(O)c3C2=O)C(O[C@H]2C[C@H](NC(=O)C(F)(F)F)[C@H](O)[C@H](C)O2)S1 (some centres unmarked) [BCH-1635] | 1.60
100 µM | 100 µM | 100 µM | 28.9 µM | 100 µM | CC(=O)Oc1c2c(c(O)c3ccccc13)C(=O)C1=C(CC(C3(C)OCCCO3)OC1)C2=O (centres unmarked) [BCH-1110] | 
